The supplement of paper PMC10307832

Key:
Assay in all cases: relative viability (nuclei count vs DMSO), 5 days (fraction); higher = more cells survive
[1] = compound: Cn1nnc2c(C(N)=O)ncn2c1=O [Temozolomide] + CC(=O)Nc1cccc(-n2c(=O)n(C3CC3)c(=O)c3c(Nc4ccc(I)cc4F)n(C)c(=O)c(C)c32)c1 [Trametinib] (partner 0.02 µM)
In short: (§1)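 Values are medians from duplicate plates. Each reflects relative viability, defined as the nuclei count of treated wells over that of vehicle wells. Lung cancer cell lines in 1536-well plates were pin-tool dosed one day after seeding with one drug alone or with a fixed anchor-drug dose plus five library-drug doses (not always all listed) in √10 steps, then fixed, stained and imaged at 4× after 5 days.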

[2] = compound: C[C@@H](C(=O)N[C@@H](C1CCCCC1)C(=O)N2CCC[C@H]2C(=O)N[C@@H]3[C@@H](CC4=CC=CC=C34)OCC#CC#CCO[C@@H]5CC6=CC=CC=C6[C@@H]5NC(=O)[C@@H]7CCCN7C(=O)[C@H](C8CCCCC8)NC(=O)[C@H](C)NC)NC [AZD5582] + COc1cc2c(Oc3ccc(NC(=O)C4(C(=O)Nc5ccc(F)cc5)CC4)cc3F)ccnc2cc1OCCCN1CCOCC1 [Foretinib] (partner 0.25 µM)
In short: as §1

[3] = compound: Cn1nnc2c(C(N)=O)ncn2c1=O [Temozolomide] + CC1(C)CCC(c2ccc(Cl)cc2)=C(CN2CCN(c3ccc(C(=O)NS(=O)(=O)c4ccc(N[C@H](CCN5CCOCC5)CSc5ccccc5)c(S(=O)(=O)C(F)(F)F)c4)cc3)CC2)C1 [Navitoclax] (partner 0.5 µM)
In short: as §1

[4] = compound: C[C@@H](C(=O)N[C@@H](C1CCCCC1)C(=O)N2CCC[C@H]2C(=O)N[C@@H]3[C@@H](CC4=CC=CC=C34)OCC#CC#CCO[C@@H]5CC6=CC=CC=C6[C@@H]5NC(=O)[C@@H]7CCCN7C(=O)[C@H](C8CCCCC8)NC(=O)[C@H](C)NC)NC [AZD5582] + O=C(CCCCCCC(=O)Nc1ccccc1)NO [Vorinostat] (partner 1 µM)
In short: as §1

| Cell Line | relative viability ([1]; first compound 0.2 µM) | relative viability ([1]; first compound 0.6325 µM) | relative viability ([1]; first compound 2 µM) | relative viability ([1]; first compound 6.325 µM) | relative viability ([1]; first compound 20 µM) | relative viability ([2]; first compound 0.001581 µM) | relative viability ([2]; first compound 0.005 µM) | relative viability ([2]; first compound 0.01581 µM) | relative viability ([2]; first compound 0.05 µM) | relative viability ([3]; first compound 0.2 µM) | relative viability ([3]; first compound 0.6325 µM) | relative viability ([3]; first compound 2 µM) | relative viability ([3]; first compound 6.325 µM) | relative viability ([3]; first compound 20 µM) | relative viability ([4]; first compound 0.001581 µM) | relative viability ([4]; first compound 0.005 µM) | relative viability ([4]; first compound 0.01581 µM) | relative viability ([4]; first compound 0.05 µM) |
| --- | --- | --- | --- | --- | --- | --- | --- | --- | --- | --- | --- | --- | --- | --- | --- | --- | --- | --- |
| 201T | 0.707 | 0.72 | 0.725 | 0.681 | 0.714 | 1.09 | 1.43 | 1.12 | 1.45 | 1.17 | 1.18 | 1.21 | 1.2 | 1.22 | 1.05 | 1.11 | 0.919 | 1.22 |
| A549 |  |  |  |  |  | 0.821 | 1.13 | 0.938 | 1.14 | 1.07 | 1.34 | 1.25 | 1.23 | 1.24 |  |  |  |  |
| A-427 | 0.807 | 0.711 | 0.69 | 0.502 | 0.458 | 0.986 | 0.881 | 1.09 | 0.769 | 0.971 | 0.923 | 0.949 | 0.596 | 0.592 | 0.816 | 0.862 | 0.885 | 0.904 |
| ABC-1 |  |  |  |  |  | 0.875 | 1.11 | 1.05 | 0.852 |  |  |  |  |  | 1.22 | 1.57 | 0.934 | 1.08 |
| BEN | 0.813 | 1.12 | 1.1 | 1 | 0.853 | 0.634 | 0.751 | 0.627 | 0.415 | 0.0644 | 0.0697 | 0.0579 | 0.0678 | 0.0653 | 0.53 | 0.568 | 0.591 | 0.555 |
| CAL-12T | 0.285 | 0.369 | 0.337 | 0.418 | 0.268 | 0.821 | 0.772 | 1.06 | 0.732 | 1.35 | 1.13 | 1.21 | 1.29 | 1.26 | 0.533 | 0.703 | 0.644 | 0.754 |
| COR-L23 | 0.624 | 0.614 | 0.641 | 0.534 | 0.545 | 0.963 | 0.887 | 0.87 | 1.1 | 1.2 | 0.933 | 1.02 | 0.976 | 0.938 | 0.404 | 0.495 | 0.452 | 0.587 |
| COR-L 105 | 0.425 | 0.42 | 0.395 | 0.431 | 0.402 | 1.02 | 1.32 | 0.888 | 1.16 | 0.819 | 0.866 | 0.996 | 0.858 | 0.649 | 0.843 | 0.912 | 0.727 | 0.878 |
| Calu-6 |  |  |  |  |  | 0.695 | 0.523 | 0.826 | 0.437 | 0.927 | 0.804 | 0.942 | 0.82 | 0.781 |  |  |  |  |
| ChaGo-K-1 | 0.959 | 0.87 | 0.967 | 0.9 | 0.887 | 0.882 | 0.9 | 0.83 | 1.1 | 1.11 | 1.16 | 1.45 | 0.968 | 0.964 | 0.718 | 0.767 | 0.711 | 0.739 |
| EBC-1 |  |  |  |  |  | 0.098 | 0.101 | 0.11 | 0.107 | 0.512 | 0.41 | 0.358 | 0.384 | 0.404 |  |  |  |  |
| EKVX |  | 0.318 | 0.286 | 0.338 | 0.247 | 0.691 | 0.932 | 0.553 | 0.612 | 0.856 | 0.962 | 0.902 | 0.976 | 0.597 | 0.72 | 0.934 |  | 0.932 |
| EMC-BAC-2 | 0.906 | 0.891 | 0.916 | 0.891 | 0.85 | 0.867 | 0.809 | 1.02 | 0.412 | 1.07 | 1.24 | 1.16 | 1.2 | 1.2 | 0.406 | 0.474 | 0.375 | 0.546 |
| EPLC-272H | 0.241 | 0.279 | 0.338 | 0.324 | 0.277 | 0.0672 |  | 0.546 | 0.0632 | 1.15 | 1.01 | 1.12 | 0.996 | 0.879 |  |  | 0.429 | 0.074 |
| H3255 |  | 0.62 | 0.656 | 0.63 | 0.214 | 0.868 | 0.796 | 0.741 | 0.772 |  | 0.523 | 0.469 | 0.485 | 0.0789 | 0.831 | 0.976 | 0.722 | 0.48 |
| HARA | 0.717 | 0.601 | 0.886 | 0.89 | 0.441 | 0.858 | 0.918 | 0.904 | 0.639 | 1.19 | 1.17 | 1.24 | 1.13 | 1.2 | 0.659 | 0.69 | 0.441 | 0.672 |
| HCC-15 | 0.38 | 0.392 | 0.417 | 0.318 | 0.385 | 0.74 | 0.805 | 0.959 | 0.75 | 0.746 | 0.731 | 0.805 | 0.687 | 0.689 | 0.762 | 0.883 | 0.752 | 0.967 |
| HCC-44 | 1.06 | 1.16 | 1.08 | 1.05 | 0.956 |  |  |  |  | 0.972 | 1.02 | 0.913 | 0.966 | 0.983 | 1.04 | 1.01 | 1.08 | 1.04 |
| HCC-78 | 0.602 | 0.793 | 0.646 |  | 0.736 | 0.537 | 0.624 | 0.548 | 0.62 | 0.48 | 0.738 | 0.953 | 0.836 | 0.793 | 0.414 | 0.493 | 0.438 | 0.366 |
| HCC-366 | 0.395 | 0.31 | 0.427 | 0.425 | 0.329 | 0.947 | 0.978 |  | 1 | 1.07 | 1.18 | 1.14 | 1.17 | 0.918 | 0.239 | 0.398 | 0.186 | 0.425 |
